# Experiments:
# [1] = molecular target: T1, Tyrosine-protein phosphatase non-receptor type 1 (Homo sapiens, UniProt P18031); assay: Inhibition of GST-tagged PTP1B (unknown origin) using pNPP as substrate measured for 2 mins by spectrophotometry
# T1 sequence (P18031 whole entry): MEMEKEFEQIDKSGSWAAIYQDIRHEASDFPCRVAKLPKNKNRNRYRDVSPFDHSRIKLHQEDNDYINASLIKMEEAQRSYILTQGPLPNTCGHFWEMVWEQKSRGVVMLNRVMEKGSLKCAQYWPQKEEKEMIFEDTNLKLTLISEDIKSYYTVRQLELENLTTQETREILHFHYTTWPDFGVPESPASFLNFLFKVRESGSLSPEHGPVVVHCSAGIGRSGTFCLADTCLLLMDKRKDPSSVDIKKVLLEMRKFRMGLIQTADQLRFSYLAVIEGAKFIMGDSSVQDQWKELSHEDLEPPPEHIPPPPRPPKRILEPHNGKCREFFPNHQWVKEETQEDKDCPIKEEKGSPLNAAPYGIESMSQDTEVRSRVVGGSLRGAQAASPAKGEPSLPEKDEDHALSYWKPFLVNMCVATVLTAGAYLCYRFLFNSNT
# [2] = molecular target: T2, Tyrosine-protein phosphatase non-receptor type 11 (Homo sapiens, UniProt Q06124); assay: Inhibition of SHP2 (unknown origin) using 3-O-Methylfluorescein phosphate as substrate preincubated for 3 mins followed by substrate addition
# T2 sequence (Q06124 whole entry): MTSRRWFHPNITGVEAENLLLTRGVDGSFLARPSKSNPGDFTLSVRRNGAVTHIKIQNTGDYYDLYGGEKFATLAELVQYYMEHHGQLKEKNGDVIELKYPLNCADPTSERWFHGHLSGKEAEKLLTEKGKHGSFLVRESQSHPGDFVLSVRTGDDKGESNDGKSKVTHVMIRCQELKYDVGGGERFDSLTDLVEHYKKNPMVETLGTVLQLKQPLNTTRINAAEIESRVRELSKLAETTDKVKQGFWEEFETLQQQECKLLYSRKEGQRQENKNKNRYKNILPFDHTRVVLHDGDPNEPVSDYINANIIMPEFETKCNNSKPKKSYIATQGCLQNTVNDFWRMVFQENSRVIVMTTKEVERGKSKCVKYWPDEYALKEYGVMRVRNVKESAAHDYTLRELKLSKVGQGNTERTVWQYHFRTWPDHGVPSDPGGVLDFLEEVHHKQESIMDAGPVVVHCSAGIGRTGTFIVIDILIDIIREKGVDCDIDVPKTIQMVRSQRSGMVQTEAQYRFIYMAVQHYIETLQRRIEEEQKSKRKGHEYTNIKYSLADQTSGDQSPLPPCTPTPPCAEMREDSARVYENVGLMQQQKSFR
# [3] = molecular target: T3, M-phase inducer phosphatase 2 (Homo sapiens, UniProt P30305); assay: Inhibition of CDC25B (unknown origin) using 3-O-Methylfluorescein phosphate as substrate preincubated for 3 mins followed by substrate addition
# T3 sequence (P30305 whole entry): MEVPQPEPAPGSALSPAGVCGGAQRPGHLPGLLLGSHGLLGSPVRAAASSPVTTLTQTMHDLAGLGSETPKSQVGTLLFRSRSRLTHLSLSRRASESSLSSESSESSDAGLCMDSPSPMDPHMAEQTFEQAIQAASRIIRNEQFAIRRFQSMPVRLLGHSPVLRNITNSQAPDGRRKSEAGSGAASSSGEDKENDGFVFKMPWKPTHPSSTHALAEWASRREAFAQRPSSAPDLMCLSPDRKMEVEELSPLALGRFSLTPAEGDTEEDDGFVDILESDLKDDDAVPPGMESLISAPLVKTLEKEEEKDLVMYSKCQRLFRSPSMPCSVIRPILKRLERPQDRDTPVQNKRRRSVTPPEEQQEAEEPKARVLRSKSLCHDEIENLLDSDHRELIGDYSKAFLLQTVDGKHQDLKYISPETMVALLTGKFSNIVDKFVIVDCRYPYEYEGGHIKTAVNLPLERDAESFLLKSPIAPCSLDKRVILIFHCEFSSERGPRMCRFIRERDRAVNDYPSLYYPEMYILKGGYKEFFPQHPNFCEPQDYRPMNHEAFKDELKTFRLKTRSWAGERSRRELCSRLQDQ
# [4] = molecular target: Tyrosine-protein phosphatase non-receptor type 6 (Homo sapiens, UniProt P29350); assay: Inhibition of SHP1 (unknown origin) using 3-O-Methylfluorescein phosphate as substrate preincubated for 3 mins followed by substrate addition
# Sequence of Tyrosine-protein phosphatase non-receptor type 6 (P29350 whole entry): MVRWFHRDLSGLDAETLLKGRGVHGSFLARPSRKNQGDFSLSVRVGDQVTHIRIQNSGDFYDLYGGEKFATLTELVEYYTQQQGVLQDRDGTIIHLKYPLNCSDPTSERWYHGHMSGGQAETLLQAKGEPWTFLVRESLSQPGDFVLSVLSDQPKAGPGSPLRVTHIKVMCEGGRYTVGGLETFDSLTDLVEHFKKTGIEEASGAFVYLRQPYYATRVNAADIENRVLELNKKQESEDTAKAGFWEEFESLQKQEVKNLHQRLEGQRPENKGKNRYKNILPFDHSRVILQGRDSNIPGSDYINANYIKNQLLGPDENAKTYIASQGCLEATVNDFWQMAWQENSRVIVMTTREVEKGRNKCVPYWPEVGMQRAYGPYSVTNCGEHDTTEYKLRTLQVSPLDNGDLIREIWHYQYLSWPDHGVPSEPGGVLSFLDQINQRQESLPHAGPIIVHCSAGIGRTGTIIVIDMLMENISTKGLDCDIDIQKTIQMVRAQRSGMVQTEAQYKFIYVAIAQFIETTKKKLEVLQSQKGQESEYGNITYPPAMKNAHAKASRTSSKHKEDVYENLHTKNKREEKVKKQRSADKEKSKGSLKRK
# [5] = molecular target: Receptor-type tyrosine-protein phosphatase F (Homo sapiens, UniProt P10586); assay: Inhibition of LAR (unknown origin) using 3-O-Methylfluorescein phosphate as substrate preincubated for 3 mins followed by substrate addition
# Sequence of Receptor-type tyrosine-protein phosphatase F (P10586 whole entry): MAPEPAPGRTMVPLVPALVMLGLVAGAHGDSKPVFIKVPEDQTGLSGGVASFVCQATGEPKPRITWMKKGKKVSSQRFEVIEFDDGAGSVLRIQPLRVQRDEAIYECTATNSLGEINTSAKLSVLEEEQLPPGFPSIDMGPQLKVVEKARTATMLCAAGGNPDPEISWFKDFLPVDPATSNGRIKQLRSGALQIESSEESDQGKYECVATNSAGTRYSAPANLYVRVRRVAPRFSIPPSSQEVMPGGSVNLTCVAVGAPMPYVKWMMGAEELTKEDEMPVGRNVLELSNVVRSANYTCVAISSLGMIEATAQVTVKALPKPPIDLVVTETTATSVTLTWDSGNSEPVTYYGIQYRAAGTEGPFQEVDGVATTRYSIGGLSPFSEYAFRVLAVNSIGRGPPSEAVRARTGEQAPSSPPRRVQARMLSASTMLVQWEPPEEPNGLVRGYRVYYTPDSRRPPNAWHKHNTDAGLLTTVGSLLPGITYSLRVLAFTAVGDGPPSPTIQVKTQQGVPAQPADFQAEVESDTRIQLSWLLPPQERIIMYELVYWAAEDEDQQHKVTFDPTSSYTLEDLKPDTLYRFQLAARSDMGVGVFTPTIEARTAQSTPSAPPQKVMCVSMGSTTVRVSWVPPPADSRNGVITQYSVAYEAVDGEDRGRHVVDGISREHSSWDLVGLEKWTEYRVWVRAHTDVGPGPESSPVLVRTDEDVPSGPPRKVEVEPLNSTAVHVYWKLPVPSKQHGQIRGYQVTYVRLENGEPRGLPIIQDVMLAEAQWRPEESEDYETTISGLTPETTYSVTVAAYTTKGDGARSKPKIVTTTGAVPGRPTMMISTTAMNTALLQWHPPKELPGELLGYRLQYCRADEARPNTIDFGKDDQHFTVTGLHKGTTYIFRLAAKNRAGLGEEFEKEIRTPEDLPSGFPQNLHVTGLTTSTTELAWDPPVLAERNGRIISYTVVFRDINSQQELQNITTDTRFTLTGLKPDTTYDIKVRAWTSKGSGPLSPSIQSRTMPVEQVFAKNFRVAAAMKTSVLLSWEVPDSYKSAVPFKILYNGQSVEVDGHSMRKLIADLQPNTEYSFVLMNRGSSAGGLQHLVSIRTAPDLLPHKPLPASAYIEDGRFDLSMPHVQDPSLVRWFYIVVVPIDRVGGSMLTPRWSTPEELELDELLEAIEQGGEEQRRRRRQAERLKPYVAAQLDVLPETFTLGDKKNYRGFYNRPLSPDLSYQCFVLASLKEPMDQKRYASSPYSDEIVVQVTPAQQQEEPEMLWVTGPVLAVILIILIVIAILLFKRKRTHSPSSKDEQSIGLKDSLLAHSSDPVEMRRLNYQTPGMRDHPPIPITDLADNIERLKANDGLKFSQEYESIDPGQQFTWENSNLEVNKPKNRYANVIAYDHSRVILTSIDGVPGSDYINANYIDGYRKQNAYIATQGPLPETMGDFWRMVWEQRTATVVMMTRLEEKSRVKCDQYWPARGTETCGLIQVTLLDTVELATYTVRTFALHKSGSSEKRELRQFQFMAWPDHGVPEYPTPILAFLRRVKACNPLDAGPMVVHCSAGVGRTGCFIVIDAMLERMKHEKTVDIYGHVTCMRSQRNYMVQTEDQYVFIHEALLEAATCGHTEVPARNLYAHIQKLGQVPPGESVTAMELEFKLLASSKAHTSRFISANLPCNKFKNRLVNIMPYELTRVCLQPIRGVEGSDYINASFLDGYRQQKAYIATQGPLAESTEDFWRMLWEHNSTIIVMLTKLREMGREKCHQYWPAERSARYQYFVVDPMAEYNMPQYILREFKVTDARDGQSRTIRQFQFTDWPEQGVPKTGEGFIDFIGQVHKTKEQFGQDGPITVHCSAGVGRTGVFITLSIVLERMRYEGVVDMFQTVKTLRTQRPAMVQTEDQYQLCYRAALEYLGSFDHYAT
# [6] = molecular target: T4, Tyrosine-protein phosphatase non-receptor type 2 (Homo sapiens, UniProt P17706); assay: Inhibition of TCPTP (unknown origin)
# T4 sequence (P17706 whole entry): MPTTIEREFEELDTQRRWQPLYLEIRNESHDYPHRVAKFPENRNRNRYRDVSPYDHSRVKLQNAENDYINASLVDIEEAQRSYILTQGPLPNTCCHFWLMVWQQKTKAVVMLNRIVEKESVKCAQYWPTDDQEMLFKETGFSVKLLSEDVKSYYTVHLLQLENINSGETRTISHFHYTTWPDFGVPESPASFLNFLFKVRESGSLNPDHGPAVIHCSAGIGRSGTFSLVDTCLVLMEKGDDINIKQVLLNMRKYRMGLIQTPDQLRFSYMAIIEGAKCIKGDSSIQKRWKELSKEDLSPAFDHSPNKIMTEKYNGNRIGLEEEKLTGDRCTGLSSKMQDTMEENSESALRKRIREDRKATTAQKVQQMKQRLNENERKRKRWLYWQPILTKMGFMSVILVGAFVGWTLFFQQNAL
Structure (SMILES),IC50 [1] [µM],IC50 [2] [µM],IC50 [3] [µM],IC50 [4] [µM],IC50 [5] [µM],IC50 [6] [µM]
CCOC(=O)/C(C)=C/C(C)=C\c1csc([C@H](Cc2ccc(OCc3ccccc3)cc2)NC(=O)C2CCCCC2)n1,23.9,,,,,
CCOC(=O)c1csc([C@H](Cc2ccc(OCc3ccccc3)cc2)NC(=O)C2CCCCC2)n1,> 40,,,,,
C/C(=C/C(C)=C/c1csc([C@H](Cc2ccc(OCc3ccccc3)cc2)NC(=O)[C@H](Cc2c[nH]c3ccccc23)NC(=O)OC(C)(C)C)n1)C(=O)OCC(=O)O,1.6,> 20,3.38,> 20,> 20,4.53
C/C(=C/C(C)=C/c1csc([C@H](Cc2ccc(OCc3ccccc3)cc2)NC(=O)CCc2c[nH]c3ccccc23)n1)C(=O)OCC(=O)O,2.32,19.1,4.82,15,> 20,8.72
CCOC(=O)COC(=O)/C(C)=C\C(C)=C\c1csc([C@H](Cc2ccc(OCc3ccccc3)cc2)NC(=O)[C@H](Cc2c[nH]c3ccccc23)NC(=O)OC(C)(C)C)n1,5.6,,,,,
C=CCOC(=O)N[C@@H](COC(=O)/C(C)=C\C(C)=C\c1csc([C@H](Cc2ccc(OCc3ccccc3)cc2)NC(=O)OC(C)(C)C)n1)C(=O)N1CCC[C@H]1C(=O)OC(C)(C)C,4.42,,,,,3.95
C/C(=C/C(C)=C/c1csc([C@H](Cc2ccc(OCc3ccccc3)cc2)NC(=O)Cc2c[nH]c3ccccc23)n1)C(=O)OCC(=O)O,3.68,> 20,4.88,> 20,> 20,9.98
C/C(=C/C(C)=C/c1csc([C@H](Cc2ccc(OCc3ccccc3)cc2)NC(=O)CCCc2c[nH]c3ccccc23)n1)C(=O)OCC(=O)O,2.45,> 20,4.38,> 20,> 20,11.1
CCOC(=O)/C(C)=C\C(C)=C\c1csc([C@H](Cc2ccc(OCc3ccccc3)cc2)NC(=O)c2ccco2)n1,18,,,,,
CCOC(=O)/C(C)=C\C(C)=C\c1csc([C@H](Cc2ccc(OCc3ccccc3)cc2)NC(=O)C(C)C)n1,16.1,,,,,
CCOC(=O)/C(C)=C\C(C)=C\c1csc([C@H](Cc2ccc(OCc3ccccc3)cc2)NC(=O)C2CCCCC2)n1,9.32,> 20,3.92,> 20,> 20,15.6
CCOC(=O)C(C)CC(C)Cc1csc([C@H](Cc2ccc(OCc3ccccc3)cc2)NC(=O)C2CCCCC2)n1 (stereo partly drawn),> 40,,,,,
CCCCC(=O)N[C@@H](Cc1ccc(OCc2ccccc2)cc1)c1nc(/C=C(C)/C=C(/C)C(=O)OCC)cs1,11.4,,,,,
"COC(=O)CCNC(=O)/C(C)=C\C(C)=C\c1csc(C(Cc2ccc(OCc3ccccc3)cc2)NC(=O)OC(C)(C)C)n1 (single isomer, unassigned)",15.9,,,,,
CCOC(=O)/C(C)=C\C(C)=C\c1csc([C@H](Cc2ccc(OCc3ccccc3)cc2)NC(=O)C2CCCC2)n1,17.9,,,,,
CCOC(=O)COC(=O)/C(C)=C\C(C)=C\c1csc([C@H](Cc2ccc(OCc3ccccc3)cc2)NC(=O)CCc2c[nH]c3ccccc23)n1,5.43,> 20,3.66,> 20,> 20,12.8

Structure (SMILES),IC50 [1] [µM],IC50 [2] [µM],IC50 [3] [µM],IC50 [4] [µM],IC50 [5] [µM],IC50 [6] [µM]
CCOC(=O)COC(=O)/C(C)=C\C(C)=C\c1csc([C@H](Cc2ccc(OCc3ccccc3)cc2)NC(=O)Cc2c[nH]c3ccccc23)n1,5.94,> 20,2.83,> 20,> 20,14
CCOC(=O)/C(C)=C\C(C)=C/c1csc([C@H](Cc2ccc(OCc3ccccc3)cc2)NC(=O)C2CCCCC2)n1,13,,,,,
CCOC(=O)/C(C)=C\C(C)=C\c1csc([C@H](Cc2ccc(OCc3ccccc3)cc2)NC(=O)c2ccc(F)cc2)n1,8.92,,,,,
CCOC(=O)COC(=O)/C(C)=C\C(C)=C\c1csc([C@H](Cc2ccc(OCc3ccccc3)cc2)NC(=O)[C@H](Cc2c[nH]c3ccccc23)NC(C)=O)n1,2.08,> 20,2.4,> 20,> 20,8.84
"CCOC(=O)CCCOC(=O)/C(C)=C\C(C)=C\c1csc(C(Cc2ccc(OCc3ccccc3)cc2)NC(=O)OC(C)(C)C)n1 (single isomer, unassigned)",12.5,,,,,
CCOC(=O)/C(C)=C\c1csc([C@H](Cc2ccc(OCc3ccccc3)cc2)NC(=O)C2CCCCC2)n1,> 40,,,,,
CCOC(=O)/C(C)=C/c1csc([C@H](Cc2ccc(OCc3ccccc3)cc2)NC(=O)C2CCCCC2)n1,> 40,,,,,
"CCOC(=O)CCCCOC(=O)/C(C)=C\C(C)=C\c1csc(C(Cc2ccc(OCc3ccccc3)cc2)NC(=O)OC(C)(C)C)n1 (single isomer, unassigned)",9.66,,,,,
"CCOC(=O)CNC(=O)/C(C)=C\C(C)=C\c1csc(C(Cc2ccc(OCc3ccccc3)cc2)NC(=O)OC(C)(C)C)n1 (single isomer, unassigned)",12.4,,,,,
CCOC(=O)/C(C)=C/C(C)=C/c1csc([C@H](Cc2ccc(OCc3ccccc3)cc2)NC(=O)C2CCCCC2)n1,19,,,,,
"CCOC(=O)COC(=O)/C(C)=C\C(C)=C\c1csc(C(Cc2ccc(OCc3ccccc3)cc2)NC(=O)OC(C)(C)C)n1 (single isomer, unassigned)",7.1,,,,,
CC(=O)N[C@@H](Cc1c[nH]c2ccccc12)C(=O)N[C@@H](Cc1ccc(OCc2ccccc2)cc1)c1nc(/C=C(C)/C=C(/C)C(=O)OCC(=O)O)cs1,3.01,> 20,5.41,> 20,> 20,17.7
CCOC(=O)/C(C)=C\C(C)=C\c1csc([C@H](Cc2ccc(OCc3ccccc3)cc2)NC(=O)C2CC2)n1,19.9,,,,,
CCOC(=O)/C(C)=C\C(C)=C\c1csc([C@H](Cc2ccc(OCc3ccccc3)cc2)NC(=O)c2ccccc2)n1,> 36,,,,,
CCOC(=O)COC(=O)/C(C)=C\C(C)=C\c1csc([C@H](Cc2ccc(OCc3ccccc3)cc2)NC(=O)CCCc2c[nH]c3ccccc23)n1,3.05,> 20,2.55,> 20,> 20,12.7
CCOC(=O)/C(C)=C\C(C)=C\c1csc([C@H](Cc2ccc(OCc3ccccc3)cc2)NC(=O)c2cc3ccccc3s2)n1,9.44,,,,,
